Assay results taken from patent publication US9624544B2, “Allelic disorders caused by mutations in TRPV4” (Northwestern University, priority 2009, dated 2017).

Columns and labels:
[1] = system: TRPV4 (wtTRPV4, TRPV4R269H, TRPV4R316C); assay: Calcium imaging, internal Fura-2 fluorescence ratio (340/380), in transiently transfected HEK293 cells; format: cell-based, human; conditions: for effect on [Ca2+]i (internal fluorescence ratio): WT-TRPV4, R269H and R316C transfected HEK293 cells
Description: The TRPV4 channel responds to a variety of stimuli (Nilius et al. Physiol Rev 87, 165-217 (2007); herein incorporated by reference in its entirety). To test the potential effects of the mutations on calcium channel activity, the calcium channel activity of transiently transfected HEK293 cells was analyzed using internal Fura-2 fluorescence ratio (340/380) as an indicator of the intracellular Ca2+ levels, which depend on Ca2+ influx. Calcium levels of the transfected cells were examined in response to various stimuli, including TRPV4-specific agonist 4α-phorbol 12, 13-didecanoate (4αPDD) (SEE FIG. 4), osmotic cell swelling (SEE FIG. 5), moderate heat (37° C.) (SEE FIG. 9) and endogenous agonist arachidonic acid (SEE FIG. 10). A consistent pattern of channel response to different stimuli was observed. […] The increased calcium channel activity was inhibited by TRPV antagonist ruthenium red.
Human embryonic kidney cells (HEK293) were grown on collagen-coated glass coverslips in Dulbecco's modified Eagle's medium containing 10% (v/v) human serum, 2 mM L-glutamine, 2 U/ml penicillin, and 2 […] at 37° C. in a humidity-controlled incubator with 5% CO2. The cells were transiently transfected with expression vectors, wild-type TRPV4, TRPV4^R316C or TRPV4^R269H using Lipofectamine 2000 (Invitrogen).
Intracellular free calcium concentration was measured using digital video microfluorimetry. Twenty-four hours after transfection, cells were rinsed briefly with HEPES buffer (120 mM NaCl, 5.4 mM KCl, 1.6 mM MgCl2, 1.8 mM CaCl2, 11 mM glucose, and 25 mM HEPES, pH 7.2), and loaded with 4 μM fura-2 AM (Molecular Probes) in HEPES buffer for 30 min at room temperature. […] The coverslips were then mounted on the stage of a Nikon Diaphot inverted epifluorescence microscope equipped for digital fluorescence microscopy. After excitation at 340 nm (Ca^2+-bound) and 380 nm (Ca^2+-free) fluorescence was digitally monitored at 520 nm. […] Values for Rmin and Rmax were determined by applying Ca^2+-free solution and high Ca^2+ containing solution in the presence of 5 μM ionomycin, respectively. […]

[2] = system: TRPV4 (wtTRPV4, TRPV4-R269H); assay: Whole cell voltage clamp recordings of TRPV4 currents from transfected HEK293 cells; format: cell-based, human; conditions: 20 μM ruthenium red in the bath; voltage ramp -100 to 100 mV; cells expressing wtTRPV4 or TRPV4-R269H
Description: The effect of the CMT2C-linked mutation (TRPV4R269H) on the electrophysiological properties of TRPV4 was examined. Whole-cell patch-clamp recordings were obtained from transiently transfected HEK293 cells.
Whole cell voltage clamp recordings were performed to HEK293 cells transiently transfected with wild-type or R269H TRPV4 cDNA. […] Similar GFP-fluorescent cells were selected for experiments. […] The series resistance was 4 to 14 MSΩ and was compensated between 65 and 75%. The extracellular solution consisted of (in mM): NaCl 100, KCl 6, MgCl2 2, CaCl2 1.5, Glucose 10, HEPES 10, pH 7.38 adjusted with NaOH, ˜315 mOsm adjusted with sucrose. Whole cell currents were recorded using an Axopatch 200B amplifier (Molecular Devices). Cells were held at −30 mV and currents were elicited by slow voltage ramps (from −100 mV to +100 mV, 0.6 sec duration), filtered at 5 KHz and sampled at 10 KHz. Drugs were bath-applied at a rate of ˜4 ml/min. The current density was determined by normalizing the current to the cell capacitance measured in voltage clamp using a −5 mV square pulse from a holding potential of −30 mV. Ruthenium red was prepared in a 20 mM stock solution (in water) and stored at 2-4° C. Working solutions were prepared freshly daily and were bath applied. After drug application the dish was discarded even if complete wash-out of the drug was obtained.

## CCCCCCCCCC(=O)O[C@@H]1[C@@H](C)[C@@]2(O)[C@@H](C=C(CO)C[C@@]3(O)C(=O)C(C)=C[C@@H]23)[C@@H]2C(C)(C)[C@]12OC(=O)CCCCCCCCC [4αPDD, 4α-phorbol 12, 13-didecanoate]
[1]; 4αPDD 2 μM
  effect on [Ca2+]i (internal fluorescence ratio): induced an increase in [Ca2+]i

## CCCCC/C=C\C/C=C\C/C=C\C/C=C\CCCC(=O)O [AA, arachidonic acid]
[1]; arachidonic acid 10 μM
  effect on [Ca2+]i (internal fluorescence ratio): induced an increase in [Ca^2+]i

## N.N.N.N.N.N.N.N.N.N.N.N.N.N.[Cl-].[Cl-].[Cl-].[Cl-].[Cl-].[Cl-].[O-2].[O-2].[Ru+3].[Ru+3].[Ru+4] [ruthenium red]
[1]; ruthenium red 20 μM used to block the stimuli, transfected HEK293 cells
  effect on the increased calcium channel activity: inhibited
[2]
  effect on basal whole-cell currents: dramatically reduced the currents
